The target in data set [1] is T1, P-gp (Homo sapiens, UniProt P08183).
T1 construct: the extremely high expression of P-gp existed in MCF-7/ADR cells and K562/ADR cells; host or cells: MCF-7/ADR and K562/ADR cells
The data set is described as follows: P-gp functional activity (rhodamine 123 accumulation, flow cytometry). It counts as cell-based. To be noted: MCF-7/ADR and K562/ADR cells, increasing CQ concentrations. On the procedure:
at 37 °C with 5 % CO2. After 24 h, cells were exposed to increasing concentrations of different formulations for 48 h. Then, 10 µL of CCK-8 reagent was added to each well and the plates were incubated for 2 h. And the absorbency was determined by a microplate reader (Thermo, USA) at 450 nm. Data are reported as means of triplicate […]
The apoptosis analysis was further investigated. Briefly, MCF-7/ADR or K562/MDR cells (2 × 10^5 cells/well) were seeded in 12-well plates and incubated overnight in RPMI 1640 containing 10 % fetal bovine serum. Afterwards, the cells were incubated with various formulations for 48 h at the final DOX·HCl and CQ concentration of 5 and 10 µg/mL, respectively. The cells were treated according to the kit instructions and analyzed by flow cytometry.
P-gp functional activity evaluation
Flow cytometry analysis was used to investigate the effect of CQ on the functional activity of P-gp through monitoring the intracellular uptake of rhodamine 123, namely, a kind of P-gp substrate. Specifically, MCF-7/ADR cells and K562/ADR cells (2 × 10^5 cells/well) were seeded in 12-well plates, respectively. […] Then the cell suspension was analyzed by flow cytometry with the 488 nm argon ion laser. Also, the individual fluorescence of 104 cells was collected for each sample at the appropriate period.

The subject of data set [2] is K562/ADR cells. The data set is described as follows: Annexin V-FITC/PI apoptosis assay. As to conditions: 5 μg/mL DOX·HCl and/or 10 µg/mL CQ, 48 h. Type of data set: cell-based, human.
The subject of data set [3] is MCF-7/ADR cells. The data set is described as follows: Annexin V-FITC/PI apoptosis assay. It counts as cell-based, human. As to conditions: 5 μg/mL DOX·HCl and/or 10 µg/mL CQ, 48 h.
For data set [4], the system named is MCF-7 cells. The data set is described as follows: Cytotoxicity by CCK-8 kit, 48 h. It counts as cell-based. To be noted: Homo sapiens. On the procedure:
(§1) The cytotoxicity of free DOX·HCl, free CQ, physical mixture of free DOX·HCl and CQ (DC), physical mixture of PPAP and cholesteryl hemisuccinate (PPAP/C) and drug-loaded nanovesicles on MCF-7 cells, MCF-7/ADR cells, K562 cells or K562/ADR cells was investigated at 48 h via CCK-8 kit. Accordingly, the reversal index (RI) of DOX·HCl for MCF-7/ADR cells and K562/ADR cells was calculated using the following formula: RI = […]. The combination index (CI) between DOX⋅HCl and CQ at different ratios was calculated as follows: CI = D1/(Dm)1 + D2/(Dm)2 + D1*D2/(Dm)1*(Dm)2, where D1 and (Dm)1 represent the IC50 values of DOX⋅HCl applied in combination or alone, respectively, and D2 and (Dm)2 represent the IC50 values of CQ applied in combination or alone, respectively. In addition, apoptosis analysis was implemented using the Annexin V-FITC/PI kit (LianKe, China) based on the kit instructions. The details were provided by Supplementary Material (Supplementary section 1). […]
(§2) Cytotoxicity and annexin V-FITC/PI apoptosis assay
(§3) To investigate the cytotoxicity of free DOX·HCl, free CQ, physical mixture of free DOX·HCl and CQ, PPAP/C and drug-loaded nanovesicles, various cell lines (MCF-7, […]
(§4) cells/well, respectively, and cultured in RPMI 1640 containing 10 % fetal bovine serum […]
(§5) at 37 °C with 5 % CO2. After 24 h, cells were exposed to increasing concentrations of different formulations for 48 h. Then, 10 µL of CCK-8 reagent was added to each well and the plates were incubated for 2 h. And the absorbency was determined by a microplate reader (Thermo, USA) at 450 nm. […]
(§6) Afterwards, rhodamine 123 (2 µg/mL) was incubated with these cells for 30 […]
(§7) minutes at 37°C . […]
(§8) 104 cells was collected for each sample at the appropriate period.

In data set [5] the test system is K562 cells. The data set is described as follows: Cytotoxicity by CCK-8 kit, 48 h. It counts as cell-based. To be noted: Homo sapiens. On the procedure: as §1, §2, §3, §4, §5, §6, §7, §8
The conditions of data set [6]: ref [20], [21]; cited from earlier work.
For data set [7] the following is noted: mouse, in vivo. As for the experimental part:
(§9) The BALB/c nude mice were subcutaneously inoculated with K562/ADR cells (2×10^7 cells) on the right flank to construct K562/ADR tumor-bearing mice models. After 10 days, mice were randomly divided into seven groups (n = 5) once the tumors reached about 80 mm^3. And then various formulations were injected intravenously through the tail vein every other day for four times and saline was taken as the control group. […] Later, the mice were sacrificed and the tumors were excised and weighted. In addition, tumors and major organs (heart, liver, spleen, lung, and kidney) were collected for slice analysis by hematoxylin and eosin (H&E) staining. The tumors were also analyzed by immunohistochemical detection of Ki67, immunofluorescence assay of LC3 and terminal deoxynucleotidyl transferased dUTP nick end labeling (TUNEL) assay.

For data set [8], the system named is MCF-7/ADR cells. The data set is described as follows: Cytotoxicity by CCK-8 kit, 48 h. It counts as cell-based, human.
Experimental: (§10) Accordingly, the reversal index (RI) of DOX·HCl for MCF-7/ADR cells and K562/ADR cells was calculated using the following formula: RI = IC50 of the test formulation / IC50 of free DOX·HCl.
The subject of data set [9] is K562/ADR cells. The data set is described as follows: Cytotoxicity by CCK-8 kit, 48 h. Type of data set: cell-based, human.
Experimental: as §10
In data set [10] the test system is K562/ADR tumors. The data set is described as follows: In vivo anti-tumor activity. Set-up: species or system BALB/c nude mice. To be noted: K562/ADR tumor-bearing nude mice, i.v. at 0, 2, 4 and 6 days, Day 16. On the procedure: as §9

Structures are written as SMILES. Structures can show the parent of a compound that is named as a salt. Where two headings read alike, the source gives them in different places.

T1 sequence (P08183 whole entry): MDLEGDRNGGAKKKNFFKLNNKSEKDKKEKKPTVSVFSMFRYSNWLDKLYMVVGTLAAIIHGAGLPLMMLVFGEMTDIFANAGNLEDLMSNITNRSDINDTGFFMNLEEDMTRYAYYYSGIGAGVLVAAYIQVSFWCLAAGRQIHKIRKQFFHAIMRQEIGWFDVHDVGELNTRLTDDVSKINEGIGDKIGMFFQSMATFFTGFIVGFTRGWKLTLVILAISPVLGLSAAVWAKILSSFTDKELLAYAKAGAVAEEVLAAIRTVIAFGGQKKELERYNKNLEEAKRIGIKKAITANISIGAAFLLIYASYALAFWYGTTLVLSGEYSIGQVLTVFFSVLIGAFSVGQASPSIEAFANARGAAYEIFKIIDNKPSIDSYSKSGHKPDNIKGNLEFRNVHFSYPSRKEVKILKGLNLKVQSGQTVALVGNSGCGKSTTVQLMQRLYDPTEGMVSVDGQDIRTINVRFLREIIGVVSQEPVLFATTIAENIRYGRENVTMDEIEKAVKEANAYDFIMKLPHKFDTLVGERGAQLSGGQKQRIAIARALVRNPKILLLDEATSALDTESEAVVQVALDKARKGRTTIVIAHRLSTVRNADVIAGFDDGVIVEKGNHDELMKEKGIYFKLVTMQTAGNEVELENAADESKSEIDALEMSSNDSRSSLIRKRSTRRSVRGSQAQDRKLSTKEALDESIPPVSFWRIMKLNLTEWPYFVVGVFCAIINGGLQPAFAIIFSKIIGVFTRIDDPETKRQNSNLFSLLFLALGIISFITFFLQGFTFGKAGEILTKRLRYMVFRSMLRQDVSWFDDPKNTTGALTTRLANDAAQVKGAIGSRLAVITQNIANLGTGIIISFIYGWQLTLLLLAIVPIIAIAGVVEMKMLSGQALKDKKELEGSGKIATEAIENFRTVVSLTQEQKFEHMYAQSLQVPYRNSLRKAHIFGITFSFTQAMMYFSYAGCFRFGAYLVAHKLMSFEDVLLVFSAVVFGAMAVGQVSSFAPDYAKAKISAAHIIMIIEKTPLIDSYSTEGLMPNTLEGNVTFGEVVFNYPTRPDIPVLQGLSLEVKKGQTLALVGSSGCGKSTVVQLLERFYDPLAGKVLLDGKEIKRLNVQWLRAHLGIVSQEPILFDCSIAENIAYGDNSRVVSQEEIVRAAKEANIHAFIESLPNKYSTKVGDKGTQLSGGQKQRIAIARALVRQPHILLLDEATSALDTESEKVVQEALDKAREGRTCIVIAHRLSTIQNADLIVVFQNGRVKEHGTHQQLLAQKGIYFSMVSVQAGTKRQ

Take `CCN(CC)CCCC(C)Nc1ccnc2cc(Cl)ccc12` (centres unmarked) [CQ, Chloroquine]: the “effect on efflux activity of P-gp (rhodamine 123 accumulation)” value in data set [1] is recorded as “can inhibit the efflux activity of P-gp”. The Apoptosis rate in [2] is listed as 40.17%; in [3] it was 33.64%. Further, the IC50 in data set [4] (MCF7, 48 h) turned out to be 23.9 ± 0.42 µg/mL; in [5] (K562, 48 h) it was 17.4 ± 1.34 µg/mL. The “plasma protein binding rate” value in data set [6] was 60%.

Regarding `COc1cccc2c1C(=O)c1c(O)c3c(c(O)c1C2=O)C[C@@](O)(C(=O)CO)C[C@@H]3O[C@H]1C[C@H](N)[C@H](O)[C@H](C)O1` [DOX·HCl, Doxorubicin hydrochloride], in [7], the “body weight change during treatment” value is reported as “sharp decrease in body weight”. Besides, the “histopathological abnormalities of hearts (H&E)” value in data set [7] was “severe histopathological abnormalities and lesions in the cardiac muscles”. The IC50 in [8] (Homo sapiens, NCI/ADR-RES, MCF-7/ADR cells, 48 h, read-out: IC50 of DOX·HCl) was determined as 72.1 µg/mL; in data set [9] (Homo sapiens, K562/ADR cells, 48 h, read-out: IC50 of DOX·HCl), 18.9 µg/mL; in data set [4] (MCF7, MCF-7 cells, within 48 h, read-out: IC50), 0.08 ± 0.01 µg/mL; in data set [5] (K562 cells, within 48 h, read-out: IC50) it was 0.15 ± 0.06 µg/mL. Moreover, the “DOX·HCl-resistance index” value in data set [8] (MCF-7/ADR cells vs sensitive cells) is reported as 902 fold; in data set [9] (K562/ADR cells vs sensitive cells) it was 126 fold. The Apoptosis rate amounted to 42.56% in [2] and 40.83% in data set [3]. In [10], the “tumor inhibition rate (TIR)” value came out at 28.80%.

(Values after paper PMC9131275, “Drug-induced self-assembled nanovesicles for doxorubicin resistance reversal via autophagy inhibition and delivery synchronism” (Theranostics, 2022).)
